{
  "source": "patent US20100304384A1",
  "about": "“METHOD OF IDENTIFYING COMPOUNDS THAT INDUCE OR INHIBIT ENDOPLASMIC RETICULUM STRESS OR OXIDATIVE STRESS” (UNIVERSIDAD AUTONOMA DE MADRID, priority 2007, published 2010)",
  "assay_type_in_all_cases": "cell-based, human",
  "key": {"DDIT3 promoter (−1507C)": {"tested_on": "DDIT3 promoter (−1507C)", "assay": "Luciferase reporter activity in SK-N-MC cells stably transfected with pXP2 DDIT3(−1507C)-Luciferase (C1 cell line)", "conditions": "−1507C construct, stable SK-N-MC cells, 15 hours of treatment; ± standard error of the mean", "procedure": "(§1) The cell lysate was assayed for the β-galactosidase activity, as an indicator of the transfection efficiency, and luciferase activity, as an indicator of the transcriptional activity of the promoters: • Assay of β-galactosidase activity. 50 μl of cell lysate are incubated in an E.L.I.S.A. plate with 50 μl of enzyme substrate (2 mM MgCl2—Merck—, 100 mM β-mercaptoethanol—Sigma—, 120 mM Na2HPO4, 80 mM NaH2PO4—both from Carlo Erba—and 1.33 mg/ml of ONPG (2-Nitrophenyl-β-D-galactopyranoside)—Sigma—). This reaction generates a colored product the concentration of which is measured as absorbance at 415 nm in an E.L.I.S.A. plate reader (Model 680, from BioRad). • Assay of luciferase activity. 40 μl of cell lysate are measured adding 100 μl of reagent of the enzyme (20 mM Tricin, […], 33.3 mM DTT, 270 μM Coenzyme A —all from Sigma—, 2.67 mM MgSO4, 0.1 mM EDTA—both from Merck—, 470 μM Luciferin potassium salt —Promega—and 530 μM ATP—Boehringer Mannheim—); alternatively, the one of the Luciferase Assay System kit—Promega—was used. The luminescence emission is recorded in a Monolight 2010 illuminometer (Analytical Luminescence Laboratory). […]\n(§2) The clones resistant to the antibiotic are isolated by aspiration with an automatic pipette and seeded in an M24 for the expansion thereof. The expression of luciferase is analyzed and the lines having greater luciferase activity are maintained. […]"}, "DDIT3 promoter": {"tested_on": "DDIT3 promoter", "assay": "Luciferase reporter activity in SK-N-MC cells transiently transfected with pXP2-DDIT3 constructs", "conditions": "transient transfection, both allelic variants; alteration seen after 6 hours of treatment", "procedure": "On the day before the transfection 2×10^5 cells per well are seeded in a 24-well plate (M24, from Falcon). 0.7 μg of DNA per well are transfected mixing the plasmids pXP2-DDIT3 and pSV-β-galactosidase in a 1:1 ratio (0.35 μg of pXP2 and 0.35 μg of β-gal) with Lipofectamine Plus (from Life Technologies), following the manufacturer's indications, in a 1:3 DNA:Lipofectamine ratio and allowing the cells to incubate with the plasmid for 5 hours. Twenty-four hours after the transfection the cells are treated to see the response to the stimulus. […]\nas §1, with “50 μl of cell lysate are incubated in an E.L.I.S.A. plate with 50 μl of enzyme substrate (2 mM MgCl2—Merck—, 100 mM β-mercaptoethanol—Sigma—, 120 mM Na2HPO4, 80 mM NaH2PO4—both from Carlo Erba—and 1.33 mg/ml of ONPG (2-Nitrophenyl-β-D-galactopyranoside)—Sigma—).” left out, “used.” for “used. The luminescence emission is recorded in a Monolight 2010 illuminometer (Analytical Luminescence Laboratory).”"}, "DDIT3 promoter (−1507G)": {"tested_on": "DDIT3 promoter (−1507G)", "assay": "Luciferase reporter activity in SK-N-MC cells stably transfected with pXP2 DDIT3(−1507G)-Luciferase (G7 cell line)", "conditions": "−1507G construct, stable SK-N-MC cells, 15 hours of treatment; ± standard error of the mean", "procedure": "as §1, §2"}},
  "data": [
    {"substance": "Tunicamycin [ERS]", "values": [
      {"measurement": "Luciferase activity with respect to the non-treated cells (activation of the DDIT3 promoter)", "setting": "DDIT3 promoter (−1507C)", "result": "4.6 ± 0.4", "unit": "times"},
      {"measurement": "Transcriptional activity of the DDIT3 promoter after treatment", "setting": "DDIT3 promoter", "result": "increases significantly"},
      {"measurement": "Luciferase activity with respect to the non-treated cells (activation of the DDIT3 promoter)", "setting": "DDIT3 promoter (−1507G)", "result": "3.4 ± 0.3", "unit": "times"}
    ]}
  ]
}
